Assays:
[1] = biological target: CDK7/Cyclin H/MAT1 complex (Homo sapiens, UniProt P50613); experiment: CDK7 kinase inhibition assay (Caliper/LabChip EZ Reader); type: biochemical; conditions: CDK7/Cyclin H/MAT1 6 nM, ATP 2 mM, 35 min at 27° C.
Description: (§1) Compounds of the invention were assayed for inhibition of CDK7, CDK9, CDK12, and CDK2 activity at Biortus Biosciences (Jiangyin, Jiangsu Province, P.R. of China) using kinase assays for each CDK developed with a Caliper/LabChip EZ Reader (Perkin Elmer, Waltham, Mass.).
(§2) Furthermore, the CDK9 inhibition assay used CDK9/Cyclin T1 complex (8 nM) and “5-FAM-CDK9tide” peptide substrate (2 μM, synthesized fluorophore-labeled peptide with the following sequence: 5-FAM-GSRTPMY-NH2 where 5-FAM is defined above and NH2 signifies a C-terminal amide) with 10 mM MgCl2 in the buffer composition listed above. The CDK12 inhibition assay used CDK12 (aa686-1082)/Cyclin K complex (50 nM) and “5-FAM-CDK9tide” (2 μM) as defined above, with 2 mM MgCl2 in the buffer composition above. Additionally, the CDK2 inhibition assay used CDK2/Cyclin E1 complex (0.5 nM) and “5-FAM-CDK7tide” (2 μM) as defined above, with 2 mM MgCl2 in the buffer composition listed above.
(§3) The incubation period at 27° C. for each CDK inhibition assay was chosen such that the fraction of phosphorylated peptide product produced in each assay, relative to the total peptide concentration, was approximately 20% (±5%) for the uninhibited kinase (35 min. for CDK7, 35 min. for CDK2, 3 hr. for CDK12, 15 min. for CDK9).

CDK9/Cyclin T1 complex = CDK9/Cyclin T1 complex (Homo sapiens, UniProt P50750); experiment: CDK9 kinase inhibition assay (Caliper/LabChip EZ Reader); type: biochemical; conditions: CDK9/Cyclin T1 8 nM, ATP 2 mM, 15 min at 27° C.
Description: as §1, §2, §3

CDK2/Cyclin E1 complex = CDK2/Cyclin E1 complex (Homo sapiens, UniProt P24941); experiment: CDK2 kinase inhibition assay (Caliper/LabChip EZ Reader); type: biochemical; conditions: CDK2/Cyclin E1 0.5 nM, ATP 2 mM, 35 min at 27° C.
Description: as §1, §2, §3

[2] = biological target: T1, CDK12 (aa686-1082)/Cyclin K complex (Homo sapiens, UniProt Q9NYV4); experiment: CDK12 kinase inhibition assay (Caliper/LabChip EZ Reader); type: biochemical; conditions: CDK12 (aa686-1082)/Cyclin K 50 nM, ATP 2 mM, 3 hr at 27° C.
T1 construct: CDK12 (aa686-1082)/Cyclin K complex
Description: as §1, §2, §3

A673 cells = experiment: Inhibition of proliferation of A673 cells (CyQUANT, 72 hour); type: cell-based, human; conditions: read-out: Inhibition of Proliferation of A673 Cells (calculated IC50)
Description: A673 Cells: A673 cells are a cell line derived from human muscle Ewing's sarcoma. Representative compounds of the invention were tested at different concentrations (from 4 μM to […]; 0.5 log serial dilutions) for their ability to inhibit the proliferation of A673 cells. Known CDK inhibitors dinaciclib or N-((1S,3R)-3-((5-chloro-4-(1H-indol-3-yl)pyrimidin-2-yl)amino)cyclohexyl)-5-((E)-4-(dimethylamino)but-2-enamido)picolinamide and triptolide were used as positive controls. Cells were grown in Dulbecco's Modified Eagle's Medium, +10% FBS+1 mM Sodium Pyruvate. The cells were cultured at 37° C. in a humidified chamber in the presence of 5% CO2. Proliferation assays were conducted over a 72 hour time period. CyQUANT® (Life Technologies, Chicago, Ill. USA) was used to assess the anti-proliferative effects of the compounds following manufacturer's directions and utilizing the reagents supplied with the CyQUANT® kit.

T1 sequence (Q9NYV4 686-1082): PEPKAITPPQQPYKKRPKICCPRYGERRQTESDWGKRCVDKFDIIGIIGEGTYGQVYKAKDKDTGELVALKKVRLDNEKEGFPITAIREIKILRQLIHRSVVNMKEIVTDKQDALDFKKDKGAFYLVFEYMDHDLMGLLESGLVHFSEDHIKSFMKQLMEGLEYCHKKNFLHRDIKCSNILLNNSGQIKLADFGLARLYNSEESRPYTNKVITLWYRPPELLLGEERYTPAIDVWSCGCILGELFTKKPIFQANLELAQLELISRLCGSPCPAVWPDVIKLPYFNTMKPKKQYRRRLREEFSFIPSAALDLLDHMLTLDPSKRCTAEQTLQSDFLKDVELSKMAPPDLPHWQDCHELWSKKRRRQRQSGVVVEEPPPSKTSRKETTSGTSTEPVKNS
T1 sequence (O75909 whole entry partner, the tested form may be a part): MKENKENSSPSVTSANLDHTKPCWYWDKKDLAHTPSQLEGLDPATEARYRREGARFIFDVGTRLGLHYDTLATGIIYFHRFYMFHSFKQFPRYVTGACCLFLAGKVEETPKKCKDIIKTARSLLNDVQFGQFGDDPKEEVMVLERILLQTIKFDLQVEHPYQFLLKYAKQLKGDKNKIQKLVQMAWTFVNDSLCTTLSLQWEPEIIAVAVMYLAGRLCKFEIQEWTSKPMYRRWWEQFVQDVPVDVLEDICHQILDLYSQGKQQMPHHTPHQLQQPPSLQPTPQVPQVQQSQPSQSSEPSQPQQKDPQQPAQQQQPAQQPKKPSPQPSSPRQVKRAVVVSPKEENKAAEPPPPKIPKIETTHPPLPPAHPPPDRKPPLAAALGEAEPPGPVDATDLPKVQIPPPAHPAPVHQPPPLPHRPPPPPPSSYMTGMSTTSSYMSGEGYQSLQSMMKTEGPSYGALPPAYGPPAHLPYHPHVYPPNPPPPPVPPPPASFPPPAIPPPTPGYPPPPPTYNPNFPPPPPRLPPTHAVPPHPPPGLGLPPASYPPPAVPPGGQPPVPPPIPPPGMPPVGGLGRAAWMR
Sequence of CDK9/Cyclin T1 complex (P50750 whole entry): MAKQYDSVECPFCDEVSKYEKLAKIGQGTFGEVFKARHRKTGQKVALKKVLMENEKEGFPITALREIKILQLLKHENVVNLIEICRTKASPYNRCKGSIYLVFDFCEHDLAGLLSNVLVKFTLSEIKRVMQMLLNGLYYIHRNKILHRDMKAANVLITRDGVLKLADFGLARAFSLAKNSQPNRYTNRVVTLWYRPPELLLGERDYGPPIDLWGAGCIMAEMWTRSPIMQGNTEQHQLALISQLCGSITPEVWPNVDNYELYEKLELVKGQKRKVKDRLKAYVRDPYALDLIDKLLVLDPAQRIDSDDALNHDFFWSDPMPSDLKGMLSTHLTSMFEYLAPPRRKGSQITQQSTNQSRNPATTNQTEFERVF
Sequence of CDK9/Cyclin T1 complex (O60563 whole entry partner): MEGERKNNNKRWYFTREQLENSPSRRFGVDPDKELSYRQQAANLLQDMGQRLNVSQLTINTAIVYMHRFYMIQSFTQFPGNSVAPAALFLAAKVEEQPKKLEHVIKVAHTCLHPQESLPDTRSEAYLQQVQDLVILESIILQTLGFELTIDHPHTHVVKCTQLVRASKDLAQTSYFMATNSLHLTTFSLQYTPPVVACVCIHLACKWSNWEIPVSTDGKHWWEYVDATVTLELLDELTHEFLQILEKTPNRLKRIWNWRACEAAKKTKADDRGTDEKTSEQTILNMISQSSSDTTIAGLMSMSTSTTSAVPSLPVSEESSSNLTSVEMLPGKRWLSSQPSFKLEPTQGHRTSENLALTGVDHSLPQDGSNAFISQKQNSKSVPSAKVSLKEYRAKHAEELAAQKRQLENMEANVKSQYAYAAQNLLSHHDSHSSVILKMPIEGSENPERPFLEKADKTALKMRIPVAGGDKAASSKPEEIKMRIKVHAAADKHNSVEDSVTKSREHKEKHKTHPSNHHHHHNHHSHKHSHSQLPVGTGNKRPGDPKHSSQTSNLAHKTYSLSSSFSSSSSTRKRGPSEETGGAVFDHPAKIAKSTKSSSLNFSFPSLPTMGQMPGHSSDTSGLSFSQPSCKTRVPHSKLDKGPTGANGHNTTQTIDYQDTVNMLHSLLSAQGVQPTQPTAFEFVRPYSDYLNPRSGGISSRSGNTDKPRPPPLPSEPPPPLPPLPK
Sequence of CDK7/Cyclin H/MAT1 complex (P50613 whole entry): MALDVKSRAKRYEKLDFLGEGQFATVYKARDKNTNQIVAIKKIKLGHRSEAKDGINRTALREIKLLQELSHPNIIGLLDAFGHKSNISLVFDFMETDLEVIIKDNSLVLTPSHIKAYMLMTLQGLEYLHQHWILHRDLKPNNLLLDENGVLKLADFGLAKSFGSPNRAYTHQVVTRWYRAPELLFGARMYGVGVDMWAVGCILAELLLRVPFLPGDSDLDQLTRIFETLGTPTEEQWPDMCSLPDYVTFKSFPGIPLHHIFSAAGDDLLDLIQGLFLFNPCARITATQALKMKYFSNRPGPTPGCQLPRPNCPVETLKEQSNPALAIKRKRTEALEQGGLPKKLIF
Sequence of CDK7/Cyclin H/MAT1 complex (P51946 whole entry partner): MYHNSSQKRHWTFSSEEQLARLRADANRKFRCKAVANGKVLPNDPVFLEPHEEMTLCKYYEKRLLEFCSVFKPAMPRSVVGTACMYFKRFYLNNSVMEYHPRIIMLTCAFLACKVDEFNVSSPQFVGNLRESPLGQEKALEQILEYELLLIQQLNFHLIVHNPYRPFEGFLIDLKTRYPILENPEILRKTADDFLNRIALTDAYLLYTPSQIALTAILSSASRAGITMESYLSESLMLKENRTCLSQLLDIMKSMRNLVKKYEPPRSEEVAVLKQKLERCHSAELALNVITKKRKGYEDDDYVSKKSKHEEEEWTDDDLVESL
Sequence of CDK7/Cyclin H/MAT1 complex (P51948 whole entry partner): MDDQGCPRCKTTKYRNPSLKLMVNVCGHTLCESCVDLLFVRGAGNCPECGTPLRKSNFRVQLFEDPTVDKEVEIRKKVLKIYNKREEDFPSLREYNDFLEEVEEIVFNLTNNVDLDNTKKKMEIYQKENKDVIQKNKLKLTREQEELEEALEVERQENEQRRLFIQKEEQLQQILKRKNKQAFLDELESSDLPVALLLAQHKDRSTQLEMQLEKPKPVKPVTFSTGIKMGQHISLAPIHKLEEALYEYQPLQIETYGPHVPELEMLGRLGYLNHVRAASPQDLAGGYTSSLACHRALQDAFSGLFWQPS

Row | SMILES | IC50 [1] | IC50 (CDK9/Cyclin T1 complex) | IC50 (CDK2/Cyclin E1 complex) | IC50 [2] | IC50 (A673 cells)
1 | Clc1cnc(N[C@H]2CN3CCC2CC3)nc1-c1c[nH]c2ccccc12 [Compound 134] | ≥ 5000 nM | ≥ 5000 nM | ≥ 5000 nM | ≥ 5000 nM | 200 to 5000 nM
2 | c1ccc2c(-c3nc(NC4CCCNC4)ncc3C3CC3)c[nH]c2c1 (stereo not drawn) [Compound 135] | 20 to 200 nM | ≥ 5000 nM | ≥ 5000 nM | ≥ 5000 nM | 200 to 5000 nM
3 | CN1CCCC(Nc2ncc(Cl)c(-c3c[nH]c4ccccc34)n2)C1 (stereo not drawn) [Compound 136] | < 20 nM | 200 to 5000 nM | 200 to 5000 nM | 200 to 5000 nM | 20 to 200 nM
4 | CCc1cnc(N[C@H]2CCCNC2)nc1-c1c[nH]c2c(C)cccc12 [Compound 137] | < 20 nM | 200 to 5000 nM | 200 to 5000 nM | 200 to 5000 nM | 20 to 200 nM
5 | Cc1cccc2c(-c3nc(NC4CCCNC4)ncc3F)c[nH]c12 (stereo not drawn) [Compound 138] | 20 to 200 nM | 200 to 5000 nM | 200 to 5000 nM | 200 to 5000 nM | 200 to 5000 nM
6 | Cc1cccc2c(-c3nc(NC4CCCNC4)ncc3CC(C)C)c[nH]c12 (stereo not drawn) [Compound 140] | 200 to 5000 nM | ≥ 5000 nM | ≥ 5000 nM | ≥ 5000 nM | 200 to 5000 nM
7 | CC(=O)c1cccc2c(-c3nc(NC4CCCNC4)ncc3Cl)c[nH]c12 (stereo not drawn) [Compound 142] | < 20 nM | 200 to 5000 nM | 200 to 5000 nM | 200 to 5000 nM | < 20 nM
8 | CCc1cnc(N[C@H]2CCCNC2)nc1-c1n[nH]c2c(F)cccc12 [Compound 143] | < 20 nM | 200 to 5000 nM | 200 to 5000 nM | 200 to 5000 nM | < 20 nM
9 | CC(C)CN1CCCC(Nc2ncc(Cl)c(-c3c[nH]c4ccccc34)n2)C1 (stereo not drawn) [Compound 145] | 20 to 200 nM | ≥ 5000 nM | ≥ 5000 nM | 200 to 5000 nM | 200 to 5000 nM
10 | Clc1cnc(NC2CCCNC2)nc1-c1c[nH]c2cccnc12 (stereo not drawn) [Compound 146] | ≥ 5000 nM | ≥ 5000 nM | ≥ 5000 nM | ≥ 5000 nM | 20 to 200 nM
11 | Ic1cnc(NC2CCCNC2)nc1-c1c[nH]c2ccccc12 (stereo not drawn) [Compound 147] | < 20 nM | 200 to 5000 nM | 20 to 200 nM | 200 to 5000 nM | < 20 nM
12 | CC(C)N1CCCC(Nc2ncc(Cl)c(-c3c[nH]c4ccccc34)n2)C1 (stereo not drawn) [Compound 148] | 20 to 200 nM | 200 to 5000 nM | ≥ 5000 nM | 200 to 5000 nM | 20 to 200 nM
13 | COCCN1CCCC(Nc2ncc(Cl)c(-c3c[nH]c4ccccc34)n2)C1 (stereo not drawn) [Compound 149] | 20 to 200 nM | 200 to 5000 nM | 200 to 5000 nM | 200 to 5000 nM | 20 to 200 nM
14 | Clc1cnc(N[C@H]2CCCNC2)nc1-c1c[nH]c2c(N3CCOCC3)cccc12 [Compound 150] | 20 to 200 nM | 200 to 5000 nM | 200 to 5000 nM | 200 to 5000 nM | 20 to 200 nM
15 | Clc1cnc(NC2CCCNC2)nc1-c1c[nH]c2ccc(N3CCOCC3)cc12 (stereo not drawn) [Compound 151] | 200 to 5000 nM | ≥ 5000 nM | ≥ 5000 nM | ≥ 5000 nM | 20 to 200 nM
16 | Fc1cc2[nH]nc(-c3nc(NC4CCCNC4)ncc3C(F)(F)F)c2cc1F (stereo not drawn) [Compound 152] | < 20 nM | 200 to 5000 nM | 200 to 5000 nM | 200 to 5000 nM | < 20 nM
17 | N#Cc1cccc2c(-c3nc(NC4CCCNC4)ncc3C(F)(F)F)c[nH]c12 (stereo not drawn) [Compound 153] | < 20 nM | 200 to 5000 nM | 20 to 200 nM | 20 to 200 nM | < 20 nM
18 | O=C(O)c1cccc2c(-c3nc(NC4CCCNC4)ncc3Cl)c[nH]c12 (stereo not drawn) [Compound 154] | 20 to 200 nM | 200 to 5000 nM | ≥ 5000 nM | 200 to 5000 nM | 200 to 5000 nM

Row | SMILES | IC50 [1] | IC50 (CDK9/Cyclin T1 complex) | IC50 (CDK2/Cyclin E1 complex) | IC50 [2] | IC50 (A673 cells)
19 | Fc1cccc2c(-c3nc(NC4CCCNC4)ncc3Cl)n[nH]c12 (stereo not drawn) [Compound 155] | 20 to 200 nM | 200 to 5000 nM | 200 to 5000 nM | 200 to 5000 nM | < 20 nM
20 | Fc1cccc2c(-c3nc(N[C@H]4CCCNC4)ncc3C(F)(F)F)n[nH]c12 [Compound 156] | < 20 nM | 200 to 5000 nM | 200 to 5000 nM | 200 to 5000 nM | < 20 nM
21 | N#Cc1cnc(NC2CCCNC2)nc1-c1c[nH]c2ccccc12 (stereo not drawn) [Compound 157] | < 20 nM | 200 to 5000 nM | 200 to 5000 nM | 200 to 5000 nM | < 20 nM
22 | FC(F)(F)Cc1cnc(N[C@H]2CCCNC2)nc1-c1c[nH]c2ccccc12 [Compound 158] | 200 to 5000 nM | ≥ 5000 nM | ≥ 5000 nM | 200 to 5000 nM | 20 to 200 nM
23 | FC(F)(F)c1cnc(N[C@H]2CCCNC2)nc1-c1c[nH]c2ccc(Cl)cc12 [Compound 160] | < 20 nM | 200 to 5000 nM | 200 to 5000 nM | 200 to 5000 nM | < 20 nM
24 | FC(F)(F)c1cnc(NC2CCCNC2)nc1-c1c[nH]c2c(Cl)cccc12 (stereo not drawn) [Compound 167] | < 20 nM | 200 to 5000 nM | 200 to 5000 nM | 20 to 200 nM | < 20 nM
25 | CCOP(=O)(OCC)c1cccc2c(-c3nc(NC4CCCNC4)ncc3C(F)(F)F)c[nH]c12 (stereo not drawn) [Compound 168] | 200 to 5000 nM | ≥ 5000 nM | ≥ 5000 nM | ≥ 5000 nM | 200 to 5000 nM
26 | N#Cc1ccc2[nH]cc(-c3nc(NC4CCCNC4)ncc3C(F)(F)F)c2c1 (stereo not drawn) [Compound 169] | 20 to 200 nM | ≥ 5000 nM | ≥ 5000 nM | 200 to 5000 nM | 200 to 5000 nM
27 | Cc1nn(C)cc1-c1cccc2c(-c3nc(NC4CCCNC4)ncc3C(F)(F)F)c[nH]c12 (stereo not drawn) [Compound 171] | < 20 nM | 200 to 5000 nM | 200 to 5000 nM | 200 to 5000 nM | < 20 nM
28 | Cc1cn(-c2cccc3c(-c4nc(NC5CCCNC5)ncc4C(F)(F)F)c[nH]c23)cn1 (stereo not drawn) [Compound 172] | < 20 nM | 200 to 5000 nM | 200 to 5000 nM | 200 to 5000 nM | < 20 nM
29 | Clc1cnc(N[C@H]2CCCNC2)nc1-c1n[nH]c2ccccc12 [Compound 174] | < 20 nM | 200 to 5000 nM | 200 to 5000 nM | 200 to 5000 nM | 20 to 200 nM
30 | FC(F)(F)c1cnc(NC2CCCNC2)nc1-c1c[nH]c2ccc(-c3cn[nH]c3)cc12 (stereo not drawn) [Compound 177] | 20 to 200 nM | ≥ 5000 nM | ≥ 5000 nM | 200 to 5000 nM | 200 to 5000 nM
31 | Cn1cc(-c2ccc3[nH]cc(-c4nc(NC5CCCNC5)ncc4C(F)(F)F)c3c2)cn1 (stereo not drawn) [Compound 178] | 20 to 200 nM | ≥ 5000 nM | ≥ 5000 nM | 200 to 5000 nM | 200 to 5000 nM
32 | CCOP(C)(=O)c1cccc2c(-c3nc(NC4CCCNC4)ncc3C(F)(F)F)c[nH]c12 (stereo not drawn) [Compound 179] | < 20 nM | 200 to 5000 nM | 200 to 5000 nM | 200 to 5000 nM | < 20 nM
33 | Cn1cc(-c2ccc3c(-c4nc(NC5CCCNC5)ncc4C(F)(F)F)c[nH]c3c2)cn1 (stereo not drawn) [Compound 181] | < 20 nM | 200 to 5000 nM | 200 to 5000 nM | 200 to 5000 nM | < 20 nM
34 | CC1CNCC(Nc2ncc(Cl)c(-c3c[nH]c4ccccc34)n2)C1 (stereo not drawn) [Compound 182] | 20 to 200 nM | 200 to 5000 nM | ≥ 5000 nM | 200 to 5000 nM | 20 to 200 nM
35 | CCOP(=O)(OCC)c1ccc2[nH]cc(-c3nc(NC4CCCNC4)ncc3C(F)(F)F)c2c1 (stereo not drawn) [Compound 183] | 20 to 200 nM | 200 to 5000 nM | 200 to 5000 nM | ≥ 5000 nM | 200 to 5000 nM
36 | Fc1cc2[nH]cc(-c3nc(NC4CCCNC4)ncc3C(F)(F)F)c2cc1F (stereo not drawn) [Compound 184] | < 20 nM | 20 to 200 nM | 20 to 200 nM | 20 to 200 nM | < 20 nM
